Assay results taken from US10654896B2, “FoxP3-binding peptides and uses thereof” (FUNDACIÓN PARA LA INVESTIGACIÓN MÉDICA APLICADA, priority 2016, dated 2020).
Where no end group is shown, it is not given here.

Assays:
human FOXP3 (FOXP3-6His) = target: T1, human FOXP3 (FOXP3-6His) (Homo sapiens, UniProt Q9BZS1); test: Peptide binding to FOXP3 by surface plasmon resonance (SPR)
T1 construct: 6xHis (C); made in house; host or cells: E. coli BL21 (DE3)
T1 sequence (Q9BZS1 1-431): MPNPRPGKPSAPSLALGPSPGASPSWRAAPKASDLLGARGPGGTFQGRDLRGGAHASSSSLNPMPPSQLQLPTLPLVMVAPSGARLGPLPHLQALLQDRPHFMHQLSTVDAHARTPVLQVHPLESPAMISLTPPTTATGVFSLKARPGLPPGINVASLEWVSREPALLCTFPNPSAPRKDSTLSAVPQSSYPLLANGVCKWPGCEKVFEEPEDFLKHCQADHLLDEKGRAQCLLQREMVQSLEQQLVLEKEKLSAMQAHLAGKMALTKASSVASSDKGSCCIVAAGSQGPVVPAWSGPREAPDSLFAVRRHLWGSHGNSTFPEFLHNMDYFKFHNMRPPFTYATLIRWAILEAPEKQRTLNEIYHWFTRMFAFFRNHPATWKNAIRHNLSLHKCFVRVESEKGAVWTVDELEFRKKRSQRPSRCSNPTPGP
In short: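 C-terminally 6His-tagged human FOXP3, expressed in E. coli BL21(DE3) and Ni-affinity purified, was amine-coupled to a GLM chip (ProteOn XPR36). Peptides at 1–20 μM injected in triplicate in PBS, 0.005% Tween 20, pH 7.4, at 30 μl/min, with interspot reference. Binding given as ratio to reference peptide p60.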

Hepa-129 cells = test: Tumor rejection experiment, Hepa-129 cells s.c.; assay type: in vivo, C3H/HeN mice; conditions: peptide 50 μg/mice/day, days 10 to 20, combined with anti-PD1 antibodies
Experimental: For tumor rejection experiments, Hepa-129 cells (10^6 cells/mouse), were injected subcutaneously (sc) in C3H/HeN mice (n=6). Ten days later, when the tumor reached 5 mm in diameter, mice were randomly divided into different experimental groups. A group of mice were treated i.p. with anti-PD1 antibodies (BE0146, BioXcell) (50 μg/mouse). Antibody administration was repeated one week after this first administration. A group of mice treated with anti-PD1 also received the cyclic peptide SEQ ID NO: 50 from days 10 to 20 (50 μg/mice/day). Tumor size, presented as the average of two perpendicular diameters (millimeters), was measured at regular intervals. Mice were sacrificed when the mean tumor diameter was greater than 20 mm. Mice were housed in appropriated animal care facilities during the experimental period and handled following the international guidelines required for experimentation with animals. The experiments were approved by institutional ethical committee.

[1] = Mouse liver microsomal stability; assay type: in vitro ADME; conditions: mouse liver microsomes
Experimental: (§1) The data collected were analyzed to calculate a half-life (t1/2, min) for tested peptides at a final concentration of 1 μM. Briefly, 5 μL of stock solution of tested peptide (10 mM) were diluted in 495 μL of 1:1 Methanol/Water (final concentration of 100 μM, 50% MeOH). Then, 50 μL of this intermediate solution were diluted in 450 μL of 100 mM potassium phosphate buffer to a concentration of 10 μM (working solution, 5% MeOH). The NADPH regenerating system contains β-Nicotinamide adenine dinucleotide phosphate (Sigma, Cat. # N0505), Isocitric acid (Sigma, Cat. #11252) and Isocitric dehydrogenase (Sigma, Cat. #12002) at a final concentration of 1 unit/mL at incubation.
(§2) Human liver microsomes were obtained from BD Gentest (Cat. #452117) and mouse liver microsomes from Xenotech (Cat. # M1000), to a final concentration of 0.7 mg protein/mL. A volume of 10 μL of peptide solution and 80 μL of microsome solution were added to a 96-well plate and incubated for 10 min at 37° C. The reaction was started by the addition of 10 μL of NADPH regenerating system and stopped by the addition of 300 μL of stop solution (ACN at 4° C., including 100 ng/mL Tolbutamide and 100 ng/mL of Labetalol as internal standard) at different incubation times (0, 5, 10, 20, 30 and 60 min). Concentrations of test compound were quantified by LC-MS/MS methodologies (Shimadzu LC 20-AD/API4000) using peak area ratio of analyte/internal standard and the percent loss of parent compound was calculated under each time point to determine the half-life.

CT26 tumor cells = test: Anti-tumor vaccination experiment (AH1 in IFA), CT26 challenge; assay type: in vivo, BALB/c
Experimental: For anti-tumor vaccination experiments, BALB/c animals immunized with 50 nanomol/mice of peptide AH1 emulsified in incomplete Freund adjuvant (IFA) (Casares et al., 2010, supra), were treated intraperitoneally with 10 nanomol/mice of the indicated Treg inhibitory peptide SEQ ID NO: 51 of the invention or with saline daily during 10 days. At day 10, mice were injected s.c. with 10^6 CT26 tumor cells. Tumor size was monitored twice a week with a calliper and it was expressed according to the formula V=(length×width2)/2. Mice were sacrificed when tumor size reached a volume greater than 4 cm^3.

[2] = Human liver microsomal stability; assay type: in vitro ADME; conditions: human liver microsomes
Experimental: as §1, §2

[3] = 20 min, read-out: % Remaining after 20 min
[4] = 60 min, read-out: % Remaining after 60 min

Row | Sequence | increase in the binding to FoxP3 with respect to p60 (SEQ ID NO: 1) (human FOXP3 (FOXP3-6His)) | antitumor activity (Hepa-129 cells) | remaining at 20 min, 1 μM [1, 3] | remaining at 1 h, 1 μM [1, 4] | half-life ([1]; peptide 1 μM) | effect on growth of CT26 colon cancer tumor (CT26 tumor cells; 10 nanomol/mice i.p. daily during 10 days after AH1/IFA, day 30 after injection of CT26) | tumor volume (CT26 tumor cells; day 30 after injection of CT26 tumor cells) | remaining at 20 min, 1 μM [2, 3] | remaining at 1 h, 1 μM [2, 4] | half-life ([2]; peptide 1 μM, read-out: t1/2)
1 | RAFQAFRKMWPFFAM [SEQ ID NO: 50] (cyclo(RAFQAFRKMWPFFAM); also: R1 and R2 form a linker birradical which is -C(=O)-) [head-to-tail cyclic peptide] | more than 2100% | remarkable antitumor activity |  |  |  |  |  |  |  | 
2 | RDFQSFRKMWPFFAM [SEQ ID NO: 1, RDFQSFRKMWPFFAM, reference compound] |  |  | 0% | 0% | < 2.5 min | not efficient | about 2000 mm^3 | 0% | 0% | < 2.5 min
